Data from US6348486B1, “Methods for modulating bladder function” (American Home Products Corporation, priority 2000, dated 2002).

Assays:
[1] = system: isolated carbachol contracted rat bladder strips; assay: Relaxation of isolated carbachol contracted rat bladder strips
Description: (§1) Using quantitative rtPCR, the expression of KCNQ1, KCNQ3 and KCNQ5 potassium channels was identified in the rat urinary bladder. […] To further probe M-current activity in the bladder, retigabine (10 μM, M-current agonist) was tested in isolated bladder smooth muscle cells using standard patch-clamp techniques. […] This hyperpolarization was reversed by the addition of linopirdine (50 μM an M-current antagonist) to the tissue bath. […] This relaxation was reversed by the M-current blockers linopirdine and XE-991.

[2] = system: isolated bladder smooth muscle cells; assay: Patch-clamp of isolated bladder smooth muscle cells (M-current activity); type: cell-based, rat
Description: as §1

[3] = molecular target: T1, KCNQ2/3 potassium channels (Homo sapiens, UniProt O43525+O43526); settings: oocytes; cited from earlier work
T1 construct: host or cells: oocytes (heterologous expression, as described in the cited article)
T1 sequence (O43526 whole entry): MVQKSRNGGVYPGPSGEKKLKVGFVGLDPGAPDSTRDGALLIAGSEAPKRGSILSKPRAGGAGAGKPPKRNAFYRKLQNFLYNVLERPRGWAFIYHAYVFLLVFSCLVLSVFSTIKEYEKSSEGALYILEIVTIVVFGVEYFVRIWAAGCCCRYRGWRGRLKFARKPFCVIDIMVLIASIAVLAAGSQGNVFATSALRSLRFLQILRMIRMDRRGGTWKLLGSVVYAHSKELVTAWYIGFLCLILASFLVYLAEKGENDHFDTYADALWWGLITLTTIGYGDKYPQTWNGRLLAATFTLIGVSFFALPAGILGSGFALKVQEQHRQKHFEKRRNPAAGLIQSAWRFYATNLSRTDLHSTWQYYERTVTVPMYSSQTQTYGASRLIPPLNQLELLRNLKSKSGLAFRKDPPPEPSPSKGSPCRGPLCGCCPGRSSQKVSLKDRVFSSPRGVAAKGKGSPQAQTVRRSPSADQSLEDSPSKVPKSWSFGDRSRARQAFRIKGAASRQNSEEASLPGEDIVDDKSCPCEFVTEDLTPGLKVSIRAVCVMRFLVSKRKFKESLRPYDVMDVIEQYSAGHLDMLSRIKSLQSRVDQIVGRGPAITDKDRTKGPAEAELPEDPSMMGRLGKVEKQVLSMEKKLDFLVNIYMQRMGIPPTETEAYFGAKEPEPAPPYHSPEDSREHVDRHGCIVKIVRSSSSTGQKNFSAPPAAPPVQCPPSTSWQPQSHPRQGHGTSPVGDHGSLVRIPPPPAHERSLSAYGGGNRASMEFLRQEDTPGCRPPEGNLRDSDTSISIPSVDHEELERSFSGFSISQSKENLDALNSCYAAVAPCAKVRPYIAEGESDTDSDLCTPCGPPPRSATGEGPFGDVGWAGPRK
T1 sequence (O43525 whole entry): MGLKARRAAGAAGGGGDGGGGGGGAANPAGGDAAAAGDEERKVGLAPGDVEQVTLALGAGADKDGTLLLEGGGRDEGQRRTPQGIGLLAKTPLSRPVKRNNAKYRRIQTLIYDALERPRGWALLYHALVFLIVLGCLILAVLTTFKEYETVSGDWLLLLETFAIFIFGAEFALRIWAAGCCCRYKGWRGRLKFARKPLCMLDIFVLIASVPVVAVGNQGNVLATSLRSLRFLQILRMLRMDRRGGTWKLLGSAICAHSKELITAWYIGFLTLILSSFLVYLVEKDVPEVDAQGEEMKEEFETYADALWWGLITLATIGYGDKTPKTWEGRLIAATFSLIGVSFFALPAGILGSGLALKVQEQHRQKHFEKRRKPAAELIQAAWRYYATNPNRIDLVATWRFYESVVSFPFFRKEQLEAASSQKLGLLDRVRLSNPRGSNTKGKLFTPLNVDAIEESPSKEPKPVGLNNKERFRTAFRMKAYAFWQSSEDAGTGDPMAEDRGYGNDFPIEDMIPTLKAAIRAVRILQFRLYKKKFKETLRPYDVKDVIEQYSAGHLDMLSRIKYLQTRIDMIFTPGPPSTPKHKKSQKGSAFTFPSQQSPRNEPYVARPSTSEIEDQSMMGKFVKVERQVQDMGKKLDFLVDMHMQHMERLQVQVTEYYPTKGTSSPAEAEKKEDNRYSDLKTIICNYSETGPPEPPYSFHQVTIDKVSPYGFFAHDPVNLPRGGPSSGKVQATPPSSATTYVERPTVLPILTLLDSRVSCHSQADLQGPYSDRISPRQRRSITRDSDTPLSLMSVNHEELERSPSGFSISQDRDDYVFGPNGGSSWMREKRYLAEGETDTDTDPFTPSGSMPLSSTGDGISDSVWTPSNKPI

| SMILES | reversal of retigabine-induced relaxation by M-current blockers [1] | reversal of retigabine-induced hyperpolarization ([2]; linopirdine 50 μM added to the tissue bath) | channel deactivation [3] | rate of channel activation [3] | voltage dependence of channel activation [3] | IC50 ([1]; Rattus norvegicus, read-out: IC50 for relaxation of carbachol contracted bladder strips) | membrane hyperpolarization ([2]; retigabine 10 μM, n=5) | outward current insensitive to iberiotoxin ([2]; retigabine 10 μM, standard patch-clamp) |
| --- | --- | --- | --- | --- | --- | --- | --- | --- |
| O=C1c2ccccc2C(Cc2ccncc2)(Cc2ccncc2)c2ccccc21 [XE-991] | reversed | – | – | – | – | – | – | – |
| O=C1N(c2ccccc2)c2ccccc2C1(Cc1ccncc1)Cc1ccncc1 [linopirdine] | reversed | reversed | – | – | – | – | – | – |
| CCOC(=O)Nc1ccc(NCc2ccc(F)cc2)cc1N [retigabine, N-[2-amino-4-(4-fluorobenzylamino)-phenyl]carbamic acid ethyl ester] | – | – | slows channel deactivation | increases the rate of channel activation | shifts the voltage dependence of channel activation to more hyperpolarized membrane potentials | 3.5 ± 0.9 µM | 17.8±3.0 mV | significantly increased |
